Data published in ChEMBL document CHEMBL3751828, “Discovery of imidazo[1,2-a]-pyridine inhibitors of pan-PI3 kinases that are efficacious in a mouse xenograft model” (Bioorg Med Chem Lett, 2016).

Key:
[1] = Cmax in CD rat at […], po by LC-MS analysis; type: ADME, organism-based; parameters: dose 2.5 mg/kg, route oral; conditions: in vivo
[2] = AUC (0 to last) in CD rat at […], po by LC-MS analysis; type: ADME, organism-based; parameters: dose 2.5 mg/kg, route oral, time 0 - last; conditions: in vivo
[3] = Apparent permeability of the compound from apical to basolateral side in human Caco2 cells; type: ADME, cell-based; conditions: Caco-2

| Structure (SMILES) | Cmax [1] | AUC(0-t) [2] | Papp A→B [3] |
| --- | --- | --- | --- |
| COc1nc(-c2ccc3nc(NC(C)=O)cn3c2)cnc1N | 8.9 µM | 15 µM·h |  |
| COCCOc1nc(-c2ccc3nc(NC(C)=O)cn3c2)cnc1N | 4 µM | 14 µM·h |  |
| CC(=O)Nc1cn2cc(-c3cnc(N)c(OC(C)C)n3)ccc2n1 | 1.3 µM | 13 µM·h |  |

Continued, values first:

| Cmax [1] | AUC(0-t) [2] | Papp A→B [3] | Structure (SMILES) |
| --- | --- | --- | --- |
| 1.5 µM | 4 µM·h |  | CC(=O)Nc1cn2cc(-c3cnc(N)c(OCC(F)(F)F)n3)ccc2n1 |
| 3.6 µM | 7 µM·h |  | CCOc1nc(-c2ccc3nc(NC(C)=O)cn3c2)cnc1N |
| 3 µM | 49 µM·h | 41 ×10⁻⁶ cm/s | CC(=O)Nc1cn2cc(-c3cnc(N)c(OC(C)C(F)(F)F)n3)ccc2n1 (racemic) |
